“And” between values parts separate entries of the source, which are not always exact repeats. Equal values may be shown once.
Assays:
Format in all cases: in vivo, beagle
beagles [1] = assay: 13-week repeated oral toxicity: eye test; settings: before and after administration, 13 weeks
Method: Eye test were conducted in the afternoon in the blood test day and blood donation day before administration (pre), the 4th week (day 29) after administration, the 8th week (day 57), and the 13th week (day 92) after administration. After observing the appearance of the left and right eyes on all the subjects, both the left and right eyes were dilated with a mydriatic agent (Mydrin®-P eye drops, ingredients: tropicamide/phenylephrine hydrochloride Taejun Pharmaceutical), and then the vitreous body and retina were tested with an ophthalmoscope (Vantage Plus LED Convertible Wired, Keeler Instruments Inc. USA).

[2] = 13-week repeated oral toxicity: feed intake; settings: repeated oral once a day for 13 weeks
Method: During the 13-week test period starting from the day before administration, feed intake was measured a total of 14 times before administration (pre) and every week on the weight measurement day for 13 weeks after the first administration. Approximately 200 g/day/head of solid feed was injected into a feed container at a predetermined time on the day before the weight measurement day and consumed freely. After 24 hours, the remaining feed was measured the next day.

beagles [3] = assay: 13-week repeated oral toxicity: urine test; settings: for Acidity / Specific gravity / Creatinine UPC / Occult blood / Protein / Bilirubin: urine
Method: Urine tests were performed on the urine collected in the morning of blood donation day (Wednesday of the week) after fasting for about 16 hours, before administration, 4th week (day 29) after administration, the 8th week (day 57) after administration, and 13th week (day 92) after administration. Urine was collected from all the fasting subjects using a silicone tube connected to a duct after mounting a urine plate at the bottom of the cage for 16 hours. The collected urine was centrifuged at 1,500 rpm for 5 minutes to obtain the supernatant, then immersed in a urine strip (thinka Urine Test Strip, ARKRAY, Inc., Japan), the residue around the strip was removed, urine was analyzed using a urine analyzer (thinka RT-4010, ARKRAY, Inc., Japan), and the urine specific gravity of each subject was measured using a urine hydrometer (Master-URC.NM, ATAGO CO., LTD, Japan).

[4] = before administration, 200 mg/kg group, female, group mean
[5] = before administration, 200 mg/kg group, female, individual animal
[6] = before administration, 200 mg/kg group, female, individual animal, 200 mg/kg
[7] = before administration, 200 mg/kg group, male, group mean
[8] = before administration, 200 mg/kg group, male, individual animal
[9] = before administration, 200 mg/kg group, male, individual animal, 200 mg/kg
[10] = before administration, 500 mg/kg group, female, group mean
[11] = before administration, 500 mg/kg group, female, individual animal
[12] = before administration, 500 mg/kg group, female, individual animal, 500 mg/kg
[13] = before administration, 500 mg/kg group, male, group mean
[14] = before administration, 500 mg/kg group, male, individual animal
[15] = before administration, 500 mg/kg group, male, individual animal, 500 mg/kg
[16] = before administration, 1,000 mg/kg group, female, group mean
[17] = before administration, 1,000 mg/kg group, female, individual animal
[18] = before administration, 1,000 mg/kg group, male, group mean
[19] = before administration, 1,000 mg/kg group, male, individual animal
[20] = 200 mg/kg, females, repeated administration for 13 weeks, group Mean
[21] = 200 mg/kg, females, repeated administration for 13 weeks, individual animals
[22] = 200 mg/kg, males, repeated administration for 13 weeks, group Mean
[23] = 200 mg/kg, males, repeated administration for 13 weeks, individual animals
[24] = 500 mg/kg, females, repeated administration for 13 weeks, group Mean
[25] = 500 mg/kg, females, repeated administration for 13 weeks, individual animals
[26] = 500 mg/kg, males, repeated administration for 13 weeks, group Mean
[27] = 500 mg/kg, males, repeated administration for 13 weeks, individual animals
[28] = 1,000 mg/kg, females, repeated administration for 13 weeks, group Mean
[29] = 1,000 mg/kg, females, repeated administration for 13 weeks, individual animals
[30] = 1,000 mg/kg, males, repeated administration for 13 weeks, group Mean
[31] = 1,000 mg/kg, males, repeated administration for 13 weeks, individual animals

CN1C(=O)NC(=O)C1O (stereo not shown) [KBP-001, 5-hydroxy-1-methylimidazolidine-2,4-dione]
eye test findings (beagles [1]): no specific findings were observed | feed intake [2]: no significant difference in feed intake between respective groups | urine test items including urine specific gravity (beagles [3]; before and after administration, 13 weeks): fell within the normal physiological ranges | Acidity (beagles [3]; [4]): 7.833 PH | Specific gravity (beagles [3]; [4]): 1.03 | Creatinine UPC (beagles [3]; [5]): <0.20 mg(ratio) | Occult blood (beagles [3]; [5]): 0.03(+−) RBC/dl | Acidity (beagles [3]; [6]): 8.0 PH and 7.0 PH and 8.5 PH | Specific gravity (beagles [3]; [6]): 1.02 (2×) and 1.04 | Acidity (beagles [3]; [7]): 8.000 PH | Specific gravity (beagles [3]; [7]): 1.03 | Creatinine UPC (beagles [3]; [8]): <0.20 mg(ratio) | Protein (beagles [3]; [8]): 15(+−) | Acidity (beagles [3]; [9]): 8.0 PH and 7.0 PH and 9.0 PH | Specific gravity (beagles [3]; [9]): 1.03 | Acidity (beagles [3]; [10]): 6.833 PH | Specific gravity (beagles [3]; [10]): 1.02 | Creatinine UPC (beagles [3]; [11]): <0.20 mg(ratio) | Occult blood (beagles [3]; [11]): 0.03(+−) RBC/dl | Acidity (beagles [3]; [12]): 6.5 PH and 7.0 PH (2×) | Specific gravity (beagles [3]; [12]): 1.02 | Acidity (beagles [3]; [13]): 8.167 PH | Specific gravity (beagles [3]; [13]): 1.03 | Bilirubin (beagles [3]; [14]): 0.5(1+) | Creatinine UPC (beagles [3]; [14]): <0.20 mg(ratio) | Acidity (beagles [3]; [15]): 8.5 PH (2×) and 7.5 PH | Specific gravity (beagles [3]; [15]): 1.03 (2×) and 1.04 | Acidity (beagles [3]; [16]): 7.667 PH | Specific gravity (beagles [3]; [16]): 1.03 | Acidity (beagles [3]; [17]): 8.0 PH and 7.5 PH (2×) | Creatinine UPC (beagles [3]; [17]): <0.20 mg(ratio) | Specific gravity (beagles [3]; [17]): 1.04 and 1.02 (2×) | Acidity (beagles [3]; [18]): 8.000 PH | Specific gravity (beagles [3]; [18]): 1.03 | Acidity (beagles [3]; [19]): 8.0 PH and 9.0 PH and 7.0 PH | Bilirubin (beagles [3]; [19]): 0.5(1+) | Creatinine UPC (beagles [3]; [19]): <0.20 mg(ratio) | Occult blood (beagles [3]; [19]): 0.06(1+) RBC/dl | Specific gravity (beagles [3]; [19]): 1.03 and 1.02 and 1.04 | Acidity (beagles [3]; [20]): 7.333 PH | Specific gravity (beagles [3]; [20]): 1.03 | Acidity (beagles [3]; [21]): 7.0 PH (2×) and 8.0 PH | Creatinine UPC (beagles [3]; [21]): <0.20 mg(ratio) | Acidity (beagles [3]; [22]): 8.567 PH | Specific gravity (beagles [3]; [22]): 1.04 | Acidity (beagles [3]; [23]): 8.0 PH and 9.0 PH (2×) | Bilirubin (beagles [3]; [23]): 0.5(1+) | Creatinine UPC (beagles [3]; [23]): <0.20 mg(ratio) | Protein (beagles [3]; [23]): 15(+−) | Specific gravity (beagles [3]; [23]): 1.04 and 1.05 and 1.02 | Acidity (beagles [3]; [24]): 8.500 PH | Specific gravity (beagles [3]; [24]): 1.03 | Acidity (beagles [3]; [25]): 9.0 PH and 8.5 PH and 8.0 PH | Creatinine UPC (beagles [3]; [25]): <0.20 mg(ratio) | Specific gravity (beagles [3]; [25]): 1.04 (2×) and 1.02 | Acidity (beagles [3]; [26]): 8.500 PH | Specific gravity (beagles [3]; [26]): 1.04 | Acidity (beagles [3]; [27]): 9.0 PH (2×) and 7.5 PH | Creatinine UPC (beagles [3]; [27]): <0.20 mg(ratio) | Protein (beagles [3]; [27]): 15(+−) | Specific gravity (beagles [3]; [27]): 1.05 and 1.02 and 1.04 | Acidity (beagles [3]; [28]): 7.667 PH | Specific gravity (beagles [3]; [28]): 1.03 | Acidity (beagles [3]; [29]): 8.0 PH and 7.5 PH (2×) | Creatinine UPC (beagles [3]; [29]): <0.20 mg(ratio) | Specific gravity (beagles [3]; [29]): 1.05 and 1.03 and 1.02 | Acidity (beagles [3]; [30]): 7.833 PH | Specific gravity (beagles [3]; [30]): 1.03 | Acidity (beagles [3]; [31]): 9.0 PH and 7.0 PH and 7.5 PH | Creatinine UPC (beagles [3]; [31]): <0.20 mg(ratio) | Occult blood (beagles [3]; [31]): 0.06(1+) RBC/dl and 0.03(+−) RBC/dl | Protein (beagles [3]; [31]): 15(+−) | Specific gravity (beagles [3]; [31]): 1.04 and 1.02 and 1.03
